Test results reported in ChEMBL document CHEMBL1833862, “Synthesis and biological evaluation of novel 2-arylamino-3-(arylsulfonyl)quinoxalines as PI3Kα inhibitors” (Eur J Med Chem, 2011).
Activity calls are given as the source filed them. The calls are words filed in the database; no cut-off is given here.

Legend:
A549 = experiment: Cytotoxicity against human A549 cells after 72 hrs by MTT assay; format: functional, cell-based; conditions: A549, 72 h
HL-60 = experiment: Cytotoxicity against human HL60 cells after 72 hrs by MTT assay; format: functional, cell-based; conditions: HL-60, 72 h
KB = experiment: Cytotoxicity against human KB cells after 72 hrs by MTT assay; format: functional, cell-based
PC-3 = experiment: cells; conditions: Homo sapiens, PC-3, 72 h
Description: Cytotoxicity against human PC3 cells after 72 hrs by MTT assay

HCT-116 = experiment: cells; conditions: Homo sapiens, HCT-116, 72 h
[1] = target: T1, Phosphatidylinositol 4,5-bisphosphate 3-kinase catalytic subunit alpha isoform (Homo sapiens, UniProt P42336); experiment: Inhibition of human recombinant PI3Kalpha assessed as production of 3,4,5-inositoltriphosphate after 3 hrs by fluorescence polarization assay
[2] = target: T1, Phosphatidylinositol 4,5-bisphosphate 3-kinase catalytic subunit alpha isoform; experiment: Inhibition of PI3K in human PC3 cells assessed as suppression of Akt Ser473 phosphorylation at 10 uM after 3 hrs by SDS-PAGE and Western blot analysis; format: cell-based; conditions: PC-3

T1 sequence (P42336 whole entry, canonical isoform): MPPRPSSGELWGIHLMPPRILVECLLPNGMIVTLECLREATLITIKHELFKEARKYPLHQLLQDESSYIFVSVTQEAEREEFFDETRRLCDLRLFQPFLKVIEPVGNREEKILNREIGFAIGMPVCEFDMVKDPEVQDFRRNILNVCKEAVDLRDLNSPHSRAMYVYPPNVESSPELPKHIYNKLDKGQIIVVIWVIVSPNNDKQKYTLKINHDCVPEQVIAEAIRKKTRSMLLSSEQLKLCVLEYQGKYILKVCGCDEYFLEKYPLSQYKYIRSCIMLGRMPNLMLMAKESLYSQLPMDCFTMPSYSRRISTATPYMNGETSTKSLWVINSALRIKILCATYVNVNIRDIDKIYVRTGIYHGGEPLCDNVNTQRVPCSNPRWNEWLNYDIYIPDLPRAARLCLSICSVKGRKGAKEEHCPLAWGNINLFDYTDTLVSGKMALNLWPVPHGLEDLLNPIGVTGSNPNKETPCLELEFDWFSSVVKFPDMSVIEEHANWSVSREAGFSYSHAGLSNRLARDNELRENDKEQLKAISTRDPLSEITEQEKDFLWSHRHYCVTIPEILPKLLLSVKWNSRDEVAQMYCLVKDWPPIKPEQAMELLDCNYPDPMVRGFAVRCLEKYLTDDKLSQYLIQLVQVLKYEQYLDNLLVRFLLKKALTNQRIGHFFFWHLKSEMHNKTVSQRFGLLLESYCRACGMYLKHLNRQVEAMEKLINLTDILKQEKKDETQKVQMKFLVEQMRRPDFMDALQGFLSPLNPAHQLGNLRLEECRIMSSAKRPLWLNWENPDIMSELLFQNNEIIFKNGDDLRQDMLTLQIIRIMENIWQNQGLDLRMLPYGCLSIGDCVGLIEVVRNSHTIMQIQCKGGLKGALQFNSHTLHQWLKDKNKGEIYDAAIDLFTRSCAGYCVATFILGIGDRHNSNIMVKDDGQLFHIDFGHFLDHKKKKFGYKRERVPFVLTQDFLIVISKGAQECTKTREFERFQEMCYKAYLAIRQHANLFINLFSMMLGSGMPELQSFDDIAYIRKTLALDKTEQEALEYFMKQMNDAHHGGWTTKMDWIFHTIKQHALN

Compound | IC50 (PC-3) | IC50 (HCT-116) | IC50 [1] | inhibition [2] | IC50 (A549) | IC50 (HL-60) | IC50 (KB)
COc1ccc(Nc2nc3ccccc3nc2S(=O)(=O)c2ccc(F)cc2)cc1 | 4.33 µM | 3.01 µM | – | – | 4.84 µM | 1.2 µM | –
O=S(=O)(c1ccccc1)c1nc2ccccc2nc1Nc1ccc(C(F)(F)F)cc1 | 3.55 µM | 2.09 µM | – | – | > 50 µM | 0.3 µM | > 50 µM
Cc1ccc(S(=O)(=O)c2nc3ccccc3nc2Nc2ccc(F)cc2)cc1 | 13.1 µM | 10.5 µM | – | – | 39.2 µM | 5.1 µM | 8.95 µM
Cc1ccc(S(=O)(=O)c2nc3ccccc3nc2Nc2ccc(Cl)cc2)cc1 | 9.66 µM | 2.05 µM | – | – | 54.2 µM | 17.5 µM | 13.8 µM
COc1cc(Nc2nc3ccccc3nc2S(=O)(=O)c2ccc(C)cc2)cc(OC)c1OC | 4.85 µM | 10.8 µM | – | – | 5.61 µM | 0.32 µM | –
COc1ccc(S(=O)(=O)c2nc3ccccc3nc2Nc2cc(OC)cc(OC)c2)cc1 | 6.22 µM | 13.4 µM | – | – | 12.7 µM | 1.71 µM | –
COc1ccc(S(=O)(=O)c2nc3ccccc3nc2Nc2ccc(N)cc2)cc1 | 9.64 µM | 6.3 µM | – | – | 2.99 µM | 0.71 µM | 17.8 µM
COc1cc(Nc2nc3ccccc3nc2S(=O)(=O)c2ccc(C)cc2)cc(OC)c1 | 2.94 µM | > 50 µM | – | Active | 8.06 µM | 0.02 µM | –
COc1ccc(S(=O)(=O)c2nc3ccccc3nc2Nc2cccc(N)c2)cc1 | 8.6 µM | 3.71 µM | – | – | 0.34 µM | 1.49 µM | 4.96 µM
O=c1cc(N2CCOCC2)oc2c(-c3ccccc3)cccc12 [LY-294002] | 61.4 µM | 56 µM | – | – | 89.7 µM | 9.94 µM | 44.8 µM
Nc1ccc(Nc2nc3ccccc3nc2S(=O)(=O)c2ccccc2)cc1 | 5.83 µM | 10.8 µM | – | – | 12.8 µM | 8.72 µM | 3.4 µM
COc1cc(Nc2nc3ccccc3nc2S(=O)(=O)c2ccc(F)cc2)cc(OC)c1 | 4.53 µM | 3.93 µM | – | – | 5.45 µM | 2.36 µM | –
O=S(=O)(c1ccccc1)c1nc2ccccc2nc1Nc1ccc(Cl)cc1 | 15.3 µM | 2 µM | – | – | 30.7 µM | 1.92 µM | 41.2 µM
COc1ccc(S(=O)(=O)c2nc3ccccc3nc2Nc2cc(OC)c(OC)c(OC)c2)cc1 | 7.85 µM | > 50 µM | – | – | 5.17 µM | 0.68 µM | –
O=S(=O)(c1ccccc1)c1nc2ccccc2nc1Nc1ccc(F)cc1 | 14.2 µM | 5.19 µM | – | – | > 50 µM | 1.01 µM | > 50 µM
COc1cc(Nc2nc3ccccc3nc2S(=O)(=O)c2ccc(Br)cc2)cc(OC)c1OC | 19.8 µM | 13 µM | – | – | 6.11 µM | 1.02 µM | –
COc1ccc(Nc2nc3ccccc3nc2S(=O)(=O)c2ccc(OC)cc2)cc1 | 8.71 µM | 29.1 µM | – | – | 8.26 µM | 1.19 µM | –
COc1ccc(Nc2nc3ccccc3nc2S(=O)(=O)c2ccc(C)cc2)cc1 | > 50 µM | > 50 µM | – | – | > 50 µM | 2.79 µM | –
Cc1ccc(S(=O)(=O)c2nc3ccccc3nc2Nc2ccc(N)cc2)cc1 | 5 µM | 11.5 µM | – | – | 24.6 µM | 1.22 µM | 5.63 µM
O=S(=O)(c1ccc(Br)cc1)c1nc2ccccc2nc1Nc1ccc(F)cc1 | 9.16 µM | 1.67 µM | – | – | 4.36 µM | 0.26 µM | 2.28 µM
COc1ccc(S(=O)(=O)c2nc3ccccc3nc2Nc2ccc(Cl)cc2)cc1 | 31.8 µM | 26.5 µM | – | – | 87.3 µM | 19.6 µM | 49.8 µM
O=S(=O)(c1ccc(Br)cc1)c1nc2ccccc2nc1Nc1ccc(Cl)cc1 | 7.46 µM | 10.6 µM | – | – | 61.4 µM | 16.4 µM | 11.6 µM
COc1cc(Nc2nc3ccccc3nc2S(=O)(=O)c2ccc(F)cc2)cc(OC)c1OC | > 50 µM | 3.11 µM | – | – | > 50 µM | 4.79 µM | –
O=S(=O)(c1ccc(Br)cc1)c1nc2ccccc2nc1Nc1ccc(C(F)(F)F)cc1 | 4.15 µM | 2.61 µM | – | – | > 50 µM | 0.28 µM | > 50 µM
Nc1cccc(Nc2nc3ccccc3nc2S(=O)(=O)c2ccc(Br)cc2)c1 | 9.01 µM | 3.28 µM | – | – | 1.12 µM | 1.37 µM | 5.34 µM
COc1cc(Nc2nc3ccccc3nc2S(=O)(=O)c2ccccc2)cc(OC)c1OC | 29.1 µM | > 50 µM | – | – | 9.66 µM | 1.77 µM | –
COc1cc(Nc2nc3ccccc3nc2S(=O)(=O)c2ccc(Br)cc2)cc(OC)c1 | 18.2 µM | > 50 µM | – | – | 15.8 µM | 2.54 µM | –

Stronger by IC50 (PC-3), values ahead:

IC50 (PC-3) | IC50 (HCT-116) | IC50 [1] | inhibition [2] | Compound | IC50 (A549) | IC50 (HL-60) | IC50 (KB)
0.33 µM | 0.11 µM | – | – | COc1ccc(S(=O)(=O)c2nc3ccccc3nc2Nc2ccc(C(F)(F)F)cc2)cc1 | 4.81 µM | 0.22 µM | 0.89 µM
0.14 µM | 0.95 µM | 0.07 µM | – | COc1cc(Nc2nc3ccccc3nc2S(=O)(=O)c2ccccc2)cc(OC)c1 | 0.07 µM | 0.05 µM | –
2.15 µM | 1.54 µM | – | – | Nc1cccc(Nc2nc3ccccc3nc2S(=O)(=O)c2ccccc2)c1 | 1.59 µM | 1.75 µM | 4.29 µM
1.26 µM | 1.26 µM | – | – | COc1ccc(S(=O)(=O)c2nc3ccccc3nc2Nc2ccccc2)cc1 | 13.2 µM | 0.26 µM | 9.89 µM
1.68 µM | 1.15 µM | > 1 µM | – | O=S(=O)(c1ccccc1)c1nc2ccccc2nc1Nc1cccc(O)c1 | 5.73 µM | 0.22 µM | 8.42 µM
2.33 µM | 1.39 µM | – | Active | Nc1ccc(Nc2nc3ccccc3nc2S(=O)(=O)c2ccc(Br)cc2)cc1 | 1.02 µM | 0.73 µM | 4.08 µM
2.54 µM | 0.95 µM | – | – | Cc1ccc(S(=O)(=O)c2nc3ccccc3nc2Nc2ccc(C(F)(F)F)cc2)cc1 | 13.5 µM | 0.27 µM | 10.3 µM
1.7 µM | 0.54 µM | 0.47 µM | – | O=S(=O)(c1ccc(Br)cc1)c1nc2ccccc2nc1Nc1cccc(O)c1 | 8 µM | 0.2 µM | 8.41 µM
1.11 µM | 3.4 µM | – | – | COc1ccc(Nc2nc3ccccc3nc2S(=O)(=O)c2ccc(Br)cc2)cc1 | 3.34 µM | 1.19 µM | –
2.2 µM | 2.11 µM | – | – | COc1ccc(S(=O)(=O)c2nc3ccccc3nc2Nc2ccc(F)cc2)cc1 | 1.24 µM | 0.61 µM | 2.59 µM
1.69 µM | 3.81 µM | > 1 µM | – | Cc1ccc(S(=O)(=O)c2nc3ccccc3nc2Nc2cccc(O)c2)cc1 | 6.08 µM | 0.4 µM | 5.35 µM
1.63 µM | 0.82 µM | > 1 µM | – | COc1ccc(S(=O)(=O)c2nc3ccccc3nc2Nc2cccc(O)c2)cc1 | 6.11 µM | 0.14 µM | 8.27 µM
2.05 µM | 10.1 µM | – | – | Nc1ccc(Nc2nc3ccccc3nc2S(=O)(=O)c2ccc(F)cc2)cc1 | 12.7 µM | 1.62 µM | –
1.18 µM | 1.11 µM | – | – | O=S(=O)(c1ccc(Br)cc1)c1nc2ccccc2nc1Nc1ccccc1 | 10.8 µM | 0.13 µM | 5.1 µM
2 µM | 2.39 µM | – | – | Cc1ccc(S(=O)(=O)c2nc3ccccc3nc2Nc2cccc(N)c2)cc1 | 1.95 µM | 1.08 µM | 10.6 µM
1.51 µM | 2.42 µM | – | – | COc1ccc(Nc2nc3ccccc3nc2S(=O)(=O)c2ccccc2)cc1 | 11.9 µM | 0.64 µM | –
0.59 µM | 1.63 µM | – | – | O=S(=O)(c1ccccc1)c1nc2ccccc2nc1Nc1ccccc1 | 26.3 µM | 0.14 µM | 22.6 µM
1.06 µM | 1.07 µM | – | – | Cc1ccc(S(=O)(=O)c2nc3ccccc3nc2Nc2ccccc2)cc1 | 12.5 µM | 0.4 µM | 19 µM
1.98 µM | 6.79 µM | – | – | Nc1cccc(Nc2nc3ccccc3nc2S(=O)(=O)c2ccc(F)cc2)c1 | 6.84 µM | 4.04 µM | –
